Assay results: patent US11945794B2, “Nuclear transport modulators and uses thereof” (Karyopharm Therapeutics Inc., priority 2013, dated 2024)

Key:
MOLT 4 xenograft = test: MOLT 4 acute lymphoblastic leukemia xenograft model; format: in vivo, mouse; conditions: 5 or 15 mg/kg PO daily, SCID mice, compared to vehicle
Description: MOLT 4 (CRL-1582) acute lymphoblastic leukemia cells were obtained from ATCC. These cells were grown in RPMI-1640 medium supplemented with 10% fetal bovine serum, 1% penicillin and streptomycin. Cells were sub-cultured by transferring floating cells to a new flask and trypsinizing adherent cells before subculturing at a ratio of 1:4. MOLT 4 cells were harvested by centrifugation and counted using a hemocytometer. Cells were resuspended in PBS at a concentration of 5×10^7 cells per mL. Cells were placed on ice, and then mixed with an equal volume of Matrigel™ (BD Biosciences CB-40234). This mixture was kept on ice and injected into the left flank of mice in a volume of 0.2 mL, equivalent to 5×10^6 cells per mouse. Thirty-two (32) SCID mice were inoculated subcutaneously in the left flank with 5×10^6 MOLT 4 cells. Treatment was initiated when the tumors reached a mean volume of 106.5 mm^3 (standard deviation±33.9 mm^3, CV 31.9%, range 43-181 mm^3). Mice were allocated to four (4) groups of eight (8) mice, […], such that mean tumor volume in each group was within the range of 102 to 111 mm^3. […] With the exception of doxorubicin (which was given IP), all compounds were given by oral gavage. […] Animal weights and conditions were recorded daily, and tumors were measured on Mondays, Wednesdays and Fridays.

CRM1 = target: T1, CRM1 (Homo sapiens, UniProt O14980); test: Washout assay in U2OS Rev-GFP cells; format: cell-based; conditions: 24 hour washout versus no washout
T1 construct: endogenous in cells; host or cells: U2OS cells stably expressing Rev-GFP
Description: After 4 hours, one of the plates was fixed with PFA (no washout, condition A). […] A second plate was fixed with PFA after a 4 hour washout (4 hr washout, condition B) and a third plate was fixed with PFA after a 24 hour washout (24 h washout, condition C). Cells were counterstained with the nuclear dye DAPI.

MM1S cells = test: MTT cell proliferation assay; format: cell-based; conditions: Homo sapiens, MM1.S, approximately 64-72 hours
Method in brief: (§1)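 Cells seeded at 5,000-10,000 per well attached overnight, then received eight compound concentrations from 1 nM to 30 μM. Viability was measured by MTT (about 4 h) with OD read at 490 nm. Percent inhibition versus negative control, mostly from duplicates, was reported as mean±SE.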

3T3 cells = test: MTT cell proliferation assay; format: cell-based; conditions: Mus musculus, NIH3T3, approximately 64-72 hours
Method in brief: as §1

Z138 cells = test: MTT cell proliferation assay; format: cell-based; conditions: Homo sapiens, Z-138, approximately 64-72 hours
Method in brief: as §1

Z-138 xenograft = test: Z-138 mantle cell lymphoma xenograft model; format: in vivo, mouse
Description: Z-138 (ATCC #CRL-3001) mantle cell lymphoma cells were obtained from ATCC. These cells were grown in IMEM medium supplemented with 10% horse serum, 1% penicillin and streptomycin, and 2 mM L-glutamine. Cells were sub-cultured by dilution at a ratio of 1:5 to 1:10. Z-138 cells were harvested by centrifugation and counted using a hemocytometer. Cells were resuspended in PBS at a concentration of 2×10^8 cells per mL. Cells were placed on ice and mixed with an equal volume of Matrigel (BD Biosciences CB-40234). This mixture was kept on ice and injected into the left flank of mice in a volume of 0.2 mL, equivalent to 2×10^7 cells per mouse. Thirty-two (32) CB-17 SCID mice were inoculated subcutaneously in the left flank with 2×10^7 Z-138 cells. Treatment was initiated when the tumors reached a mean volume of 125.2 mm^3. Mice were allocated to four (4) groups of eight (8) mice such that mean tumor volume in each group was within the range of 106.5 to 138.8 mm^3. […] Animal weights and conditions were recorded daily, and tumors were measured on Mondays, Wednesdays and Fridays.

U251MG spheroids = test: Glioblastoma spheroid assay; format: cell-based; conditions: 1 μM, U251MG spheroids in Matrigel, compared with control
Description: (§2) Cells (U87MG and U251MG) were detached and re-suspended at 1×10^5 cells/mL. 5,000 cells were loaded into a hanging drop plate (3D Biomatrix Cat. No.: HDP1096) and incubated for 5 days (37° C.; 5% CO2) to form spheroids. 300 μL of Matrix Gel (Corning Matrigel Cat #354234; Lot #3330622) were plated per well in a 24-well plate and incubated for 30 minutes. Spheroids were removed from the hanging drop plate and seeded into the […]™ (1 spheroid per well). Spheroids were incubated for 15 minutes and then 460 μL media was added. […] The plates were analyzed at several time points using 40× and 20× phase microscopes, and photos of the spheroids were taken.

U87MG spheroids = test: Glioblastoma spheroid assay; format: cell-based; conditions: 1 μM, U87MG spheroids in Matrigel, compared with control
Description: as §2

T1 sequence (O14980 whole entry): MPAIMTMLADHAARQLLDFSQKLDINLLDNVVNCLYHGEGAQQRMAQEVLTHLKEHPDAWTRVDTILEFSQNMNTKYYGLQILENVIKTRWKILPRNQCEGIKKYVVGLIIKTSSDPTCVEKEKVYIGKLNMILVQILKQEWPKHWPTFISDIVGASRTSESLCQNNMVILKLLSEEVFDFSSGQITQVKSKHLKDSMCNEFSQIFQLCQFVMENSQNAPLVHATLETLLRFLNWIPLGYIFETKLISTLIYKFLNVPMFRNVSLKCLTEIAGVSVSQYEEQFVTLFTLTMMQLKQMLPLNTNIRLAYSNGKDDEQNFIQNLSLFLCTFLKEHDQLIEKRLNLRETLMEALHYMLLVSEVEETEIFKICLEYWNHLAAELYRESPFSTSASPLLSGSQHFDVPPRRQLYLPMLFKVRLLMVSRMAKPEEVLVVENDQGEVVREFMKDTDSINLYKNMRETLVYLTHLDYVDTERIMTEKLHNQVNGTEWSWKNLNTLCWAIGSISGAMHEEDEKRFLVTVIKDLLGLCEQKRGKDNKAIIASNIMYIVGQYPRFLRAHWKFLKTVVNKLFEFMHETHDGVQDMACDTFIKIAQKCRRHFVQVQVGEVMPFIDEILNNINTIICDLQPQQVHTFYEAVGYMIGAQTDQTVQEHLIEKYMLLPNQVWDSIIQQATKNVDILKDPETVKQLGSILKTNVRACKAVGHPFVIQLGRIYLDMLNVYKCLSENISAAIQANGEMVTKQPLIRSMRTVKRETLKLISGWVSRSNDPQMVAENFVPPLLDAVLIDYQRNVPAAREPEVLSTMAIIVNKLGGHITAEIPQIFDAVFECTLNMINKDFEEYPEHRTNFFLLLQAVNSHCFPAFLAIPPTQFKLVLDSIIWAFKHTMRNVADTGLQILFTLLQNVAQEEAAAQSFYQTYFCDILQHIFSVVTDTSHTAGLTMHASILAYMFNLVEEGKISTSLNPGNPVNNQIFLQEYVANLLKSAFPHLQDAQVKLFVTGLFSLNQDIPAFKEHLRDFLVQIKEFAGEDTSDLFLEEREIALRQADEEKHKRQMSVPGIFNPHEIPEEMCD

decrease in effectiveness after a 24 hour washout (CRM1): 6 fold | IC50 (MM1S cells): < 100 nM
Compound: NC(=O)/C(=C/n1cnc(-c2cc(C(F)(F)F)cc(C(F)(F)F)c2)n1)c1cncnc1 [Compound 124, (E)-3-(3-(3,5-bis(trifluoromethyl)phenyl)-1H-1,2,4-triazol-1-yl)-2-(pyrimidin-5-yl)acrylamide]
mean tumor volume (MOLT 4 xenograft): mean tumor volume was reduced | IC50 (3T3 cells): 5 to 30 µM | IC50 (Z138 cells): < 100 nM | mean tumor volume compared with standard of care (Z-138 xenograft; 15 mg/kg PO daily, versus cyclophosphamide): compared favorably | mean tumor volume (Z-138 xenograft; 5 or 15 mg/kg PO daily, CB-17 SCID mice, compared to vehicle): mean tumor volume was reduced | spheroid cell growth (U251MG spheroids): shrinking of the spheroid with complete elimination of any cell growth out of the sphere | spheroid cell growth (U87MG spheroids): significant reduction in cell growth
